Assay type in all cases: biochemical
For assay [1], the target named is T1, ATGL (Mus musculus, UniProt Q8BJ56).
T1 construct: a recombinant adenovirus encoding the His-tagged full length mouse ATGL cDNA was constructed; expressed in transfected cells; host or cells: HepG2 cells infected with recombinant adenovirus; cytosolic fraction
T1 sequence (Q8BJ56 1-486): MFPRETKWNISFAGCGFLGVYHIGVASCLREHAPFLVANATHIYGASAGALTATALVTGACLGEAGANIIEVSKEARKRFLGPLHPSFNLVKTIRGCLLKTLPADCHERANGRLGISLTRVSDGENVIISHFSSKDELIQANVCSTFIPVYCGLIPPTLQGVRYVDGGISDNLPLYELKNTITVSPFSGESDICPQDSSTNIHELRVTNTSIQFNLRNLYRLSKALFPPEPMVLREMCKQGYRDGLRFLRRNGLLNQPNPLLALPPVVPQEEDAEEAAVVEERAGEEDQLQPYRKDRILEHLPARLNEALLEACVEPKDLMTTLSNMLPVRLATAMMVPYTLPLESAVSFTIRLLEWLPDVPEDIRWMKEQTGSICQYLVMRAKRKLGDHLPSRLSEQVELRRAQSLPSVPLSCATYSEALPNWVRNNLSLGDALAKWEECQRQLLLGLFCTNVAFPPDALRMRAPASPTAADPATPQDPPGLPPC
Briefly: TG hydrolase activity assay, cytosolic fractions of HepG2 cells infected with adenovirus coding for His-tagged ATGL, radiolabeled triolein substrate. The method, then: (§1) Neutral TG lipase activity was measured with triolein as substrate containing [9,10-3H(N)]-triolein (NEN Life Science Products) as radioactive tracer. The substrate for TG lipase activity was prepared by sonication (Virsonic 475) exactly as describeded by Holm et al. (30). Cells were disrupted on ice in lysis buffer (0.25 M sucrose, 1 mM EDTA, 1 mM dithiothreitol, 20 μg/ml leupeptin, 2 μg/ml antipain, 1 μg/ml pepstatin, pH 7) by sonication (Virsonic 475). The cytosolic infranatants were obtained after centrifugation at […], at 4° C. for 60 min. The reaction was performed in a water bath at 37° C. for 60 min with 0.1 ml substrate and 0.1 ml infranatant. The reaction was terminated by adding 3.25 ml of methanol/chloroform/heptane (10:9:7) and 1 ml of 0.1 M potassium carbonate, 0.1 M boric acid, pH 10.5. After centrifugation (800 g, 20 min) the radioactivity in 1 ml of the upper phase was determined by liquid scintillation counting.
A recombinant adenovirus coding for His-tagged ATGL or HSL was used to infect HepG2 cells as described above. For activity assays, the cytosolic fractions of the cells were incubated with a substrate containing radiolabeled triolein in the absence (control) or in the presence of 50 μg/ml orlistat. It can be seen from FIG. 4 that addition of orlistat decreased in ATGL activity by 98%. […]

Assay [2] addresses T2, HSL (Mus musculus, UniProt P54310).
T2 construct: His-tag; expressed in transfected cells; host or cells: HepG2 cells infected with recombinant adenovirus; cytosolic fraction
T2 sequence (P54310 1-759): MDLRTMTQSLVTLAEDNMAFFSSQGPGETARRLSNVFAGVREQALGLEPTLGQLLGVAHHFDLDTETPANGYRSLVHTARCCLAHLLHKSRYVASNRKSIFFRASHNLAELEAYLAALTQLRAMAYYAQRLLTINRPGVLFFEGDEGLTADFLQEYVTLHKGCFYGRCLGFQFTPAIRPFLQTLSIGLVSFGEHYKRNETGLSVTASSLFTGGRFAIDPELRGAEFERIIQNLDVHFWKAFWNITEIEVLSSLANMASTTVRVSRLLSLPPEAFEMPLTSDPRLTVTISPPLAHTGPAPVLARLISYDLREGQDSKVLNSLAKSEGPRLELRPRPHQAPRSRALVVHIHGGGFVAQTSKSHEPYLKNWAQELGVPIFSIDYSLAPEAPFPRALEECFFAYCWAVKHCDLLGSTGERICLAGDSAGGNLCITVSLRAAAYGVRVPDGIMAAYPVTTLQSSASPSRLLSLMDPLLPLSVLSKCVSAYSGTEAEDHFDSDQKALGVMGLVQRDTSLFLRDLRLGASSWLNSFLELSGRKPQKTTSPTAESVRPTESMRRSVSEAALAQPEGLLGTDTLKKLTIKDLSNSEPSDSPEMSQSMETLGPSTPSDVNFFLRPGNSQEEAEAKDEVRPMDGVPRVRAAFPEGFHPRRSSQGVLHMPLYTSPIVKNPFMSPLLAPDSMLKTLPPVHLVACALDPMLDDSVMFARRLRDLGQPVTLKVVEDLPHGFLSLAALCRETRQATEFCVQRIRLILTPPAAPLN
Briefly: TG hydrolase activity assay, cytosolic fractions of HepG2 cells infected with adenovirus coding for His-tagged HSL, radiolabeled triolein substrate. Particulars: 1M KCl vs absence (control), FIG. 5. As for the experimental part: as §1
A recombinant adenovirus coding for His-tagged ATGL or HSL was used to infect HepG2 cells. The infection led to a 7- and 12-fold increase in TG hydrolase activity for HSL and ATGL, respectively, compared to LacZ-infected cells. For activity assays, the cytosolic fractions of the cells were incubated with a substrate containing radiolabeled triolein in the absence (control) or in the presence of the indicated salt concentrations.

In assay [3] the target is T3, human ATGL (hATGL) (Homo sapiens, UniProt Q96AD5).
T3 construct: The PCR products, containing the complete open reading frame, were ligated; expressed in transfected cells; host or cells: COS-7, transient transfection; cytoplasmic extracts
T3 sequence (Q96AD5 2-504): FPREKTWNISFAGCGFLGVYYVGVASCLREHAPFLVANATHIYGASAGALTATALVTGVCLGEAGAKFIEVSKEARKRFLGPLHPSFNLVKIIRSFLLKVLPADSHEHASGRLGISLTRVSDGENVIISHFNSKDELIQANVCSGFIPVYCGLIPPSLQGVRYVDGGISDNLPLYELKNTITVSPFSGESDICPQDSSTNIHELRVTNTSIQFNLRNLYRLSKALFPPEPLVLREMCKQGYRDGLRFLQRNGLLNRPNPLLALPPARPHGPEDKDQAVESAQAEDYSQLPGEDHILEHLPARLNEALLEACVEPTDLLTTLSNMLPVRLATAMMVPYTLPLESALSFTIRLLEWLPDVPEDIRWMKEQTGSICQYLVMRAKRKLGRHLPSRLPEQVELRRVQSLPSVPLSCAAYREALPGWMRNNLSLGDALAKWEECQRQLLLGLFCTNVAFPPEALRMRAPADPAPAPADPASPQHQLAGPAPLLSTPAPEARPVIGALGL
T3 sequence (Q8WTS1 1-349 partner): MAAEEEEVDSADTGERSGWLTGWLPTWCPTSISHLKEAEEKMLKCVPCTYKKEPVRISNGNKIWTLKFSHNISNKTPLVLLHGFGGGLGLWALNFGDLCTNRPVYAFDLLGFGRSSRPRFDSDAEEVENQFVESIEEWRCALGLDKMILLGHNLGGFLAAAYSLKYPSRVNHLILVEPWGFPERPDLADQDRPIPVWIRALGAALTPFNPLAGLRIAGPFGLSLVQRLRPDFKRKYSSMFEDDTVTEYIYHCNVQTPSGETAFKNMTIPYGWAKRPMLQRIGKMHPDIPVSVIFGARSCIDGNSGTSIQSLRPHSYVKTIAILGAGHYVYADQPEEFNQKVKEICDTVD
The assay can be described thus: TGH activity assay of hATGL with hCGI-58 expressed in COS-7 cells. The note with it: human proteins; dose-dependent; FIG. 6f. The source says: In comparison, transfection of cells with ATGL and HSL increased TGH activities 4- and 9-fold, respectively. In order to investigate whether the effect of CGI-58 is due to endogenous TGH activity of CGI-58 or if the protein affects the activity of other lipases, the extracts of CGI-58 and ATGL or HSL-expressing cells were mixed together and subjected to TGH activity determinations (FIG. 6c). […] The activation of ATGL by CGI-58 could also be monitored on the molecular level using the fluorescently labeled lipase-inhibitor NBD-snl TG. By mimicking a TG molecule, this inhibitor covalently binds to active lipases. […]
Expression ofrecombinant proteins in cultured cells for CGI-58 investigations—Monkey embryonic kidney cells (COS-7, ATCC CRL-1651) were maintained in Dulbecco's minimal essential medium (DMEM) (Gibco, Invitrogen life technologies, Carlsbad, Calif.) containing 10% fetal calf serum (FCS) (Sigma-Aldrich Chemie GmbH) and antibiotics at 37° C. in humidified air (89-91% saturation) and 5% C02. […] Cells were analyzed two days after transfection.
FIG. 6. […] (a) His-tagged proteins were detected in cytoplasmic extracts of transfected cells by Western blotting using a monoclonal anti-His antibody. (b) TGH activity of cytoplasmic extracts of transfected cells was determined using a radiolabeled triolein substrate. […] The molar ratio ATGL/CGI-58 was determined as described in (d).

On to `CCCCCCCCCCC[C@@H](C[C@@H]1OC(=O)[C@H]1CCCCCC)OC(=O)[C@H](CC(C)C)NC=O` [orlistat], for which the “decrease in ATGL activity” value in assay [1] (50 μg/ml orlistat vs absence (control), FIG. 4) was 98%. Regarding `[Cl-].[K+]` [KCl, potassium chloride], the “change in ATGL activity (stimulated)” value in assay [1] (1M KCl vs absence (control), FIG. 5) is “+84%”. Also, in assay [2], the “change in HSL activity” value is −68%.

B1: hCGI-58: human CGI-58 expressed in COS-7 cells (protein, UniProt Q8WTS1 2-349, looked up)
1-acylglycerol-3-phosphate …: AAEEEEVDSADTGERSGWLTGWLPTWCPTSISHLKEAEEKMLKCVPCTYKKEPVRISNGNKIWTLKFSHNISNKTPLVLLHGFGGGLGLWALNFGDLCTNRPVYAFDLLGFGRSSRPRFDSDAEEVENQFVESIEEWRCALGLDKMILLGHNLGGFLAAAYSLKYPSRVNHLILVEPWGFPERPDLADQDRPIPVWIRALGAALTPFNPLAGLRIAGPFGLSLVQRLRPDFKRKYSSMFEDDTVTEYIYHCNVQTPSGETAFKNMTIPYGWAKRPMLQRIGKMHPDIPVSVIFGARSCIDGNSGTSIQSLRPHSYVKTIAILGAGHYVYADQPEEFNQKVKEICDTVD
As to B1, the “magnitude of the maximal effect on ATGL activation” value in assay [3] was 6 fold.

For the origin of these results see US20120009613A1, “PHARMACEUTICAL COMPOSITION FOR MODULATING THE ACTIVITY OF A NOVEL TRIGLYCERIDE HYDROLASE” (Karl-Franzens-Universitat Graz, priority 2004, published 2012).
